This is an account of results in US12466840B2, “Small molecule inhibitors of KRAS proteins” (Merck Sharp & Dohme LLC, priority 2023, dated 2025).

In general, MRT refers to a mean duration of stay, worked out from the concentration-time curve. As a reminder, the bioavailability is the share of a dose that reaches the circulation, judged against a reference dose that is usually intravenous.

Type in all cases: in vivo
Data set [1] in a line: Rat IV/PO pharmacokinetic studies. Conditions: for F % / bioavailability: oral bioavailability, PO 2 mg/kg vs. IV 1 mg/kg; for CLp / MRT / Vd / clearance / bioavailability: plasma; for CLp / MRT / Vd / clearance: IV 1 mg/kg; for clearance: read-out: CLp. How it is done: Procedure for Rat IV/PO Pharmacokinetic Studies
Plasma pharmacokinetic parameters for clearance, volume of distribution, half-life and oral bioavailability were determined in rats from oral administration and IV administration studies. 4 male rats, typically weighing 225-260 g, were fasted overnight prior to dosing. IV formulation was administered to 2 rats via pre-cannulated jugular vein, and oral dosing was administered to 2 rats via oral gavage. Blood was collected by pre-cannulated artery, typically at predose, 2, 8, 15, 30 min, 1, 2, 4, 6, and 8 hr postdose for IV, and at predose, 15, 30 min, 1, 2, 4, 6, 8 h for oral dosing. Samples were collected in K2EDTA tubes, stored on ice, and centrifuged. Plasma was transferred to a micro titer plate and stored at −70° C. until analysis. Plasma samples were extracted using protein precipitation and analyzed by liquid chromatography separation followed by mass spec detection (LC-MS/MS), using a standard curve for each compound. Plasma pharmacokinetic parameters were calculated for IV and oral dosing data by non-compartmental methods. Oral bioavailability was determined as the ratio of the dose-normalized plasma area under the curve (AUC) following oral dosing vs. IV dosing.

The nature of data set [2]: Dog IV/PO pharmacokinetic studies. To be noted: for F % / bioavailability: oral bioavailability, PO 0.5 mg/kg vs. IV; for CLp / MRT / Vd / clearance / bioavailability: plasma; for CLp / MRT / Vd / clearance: IV 0.25 mg/kg (Ex-2 0.05 mg/kg); for clearance: read-out: CLp. How it is done: Procedure for Dog IV/PO Pharmacokinetic Studies
Plasma pharmacokinetic parameters for clearance, volume of distribution, half-life, mean residence time (MRT) and oral bioavailability were determined in dogs from oral administration and IV administration studies. 4 male dogs, typically weighing 8-12 kg, were fasted overnight prior to dosing. IV formulation was administered to 2 dogs via the saphenous or cephalic vein, and oral dosing was administered to 2 dogs via oral gavage. Blood was collected by the cephalic or jugular vein, typically at predose, 2, 8, 15, 30 min, 1, 2, 4, 6, 8 and 24 h postdose for IV, and at predose, 15, 30 min, 1, 2, 4, 6, 8, and 24 hr for oral dosing. Samples were collected in K2EDTA tubes, stored on ice, and centrifuged. Plasma was transferred to a micro titer plate and stored at −70° C. until analysis. Plasma samples were extracted using protein precipitation and analyzed by liquid chromatography separation followed by mass spec detection (LC-MS/MS), using a standard curve for each compound. Plasma pharmacokinetic parameters were calculated for IV and oral dosing data by non-compartmental methods. Oral bioavailability was determined as the ratio of the dose-normalized plasma area under the curve (AUC) following oral dosing vs. IV dosing.

The nature of data set [3]: Dog IV cassette pharmacokinetic studies. Conditions: plasma, IV cassette 0.05 mg/kg. As for the experimental part:
Procedure for Dog IV Cassette Pharmacokinetic Studies
Plasma pharmacokinetic parameters for clearance, volume of distribution, half-life, and mean residence time (MRT) were determined in dogs from IV cassette administration studies. 2 male dogs, typically weighing 8-12 kg, were fasted overnight prior to dosing. IV formulation was administered to 2 dogs via the saphenous or cephalic vein. Blood was collected by the cephalic or jugular vein, typically at predose, 2, 8, 15, 30 min, 1, 2, 4, 6, 8 and 24 h postdose. Samples were collected in K2EDTA tubes, stored on ice, and centrifuged. Plasma was transferred to a micro titer plate and stored at −70° C. until analysis. Plasma samples were extracted using protein precipitation and analyzed by liquid chromatography separation followed by mass spec detection (LC-MS/MS), using a standard curve for each compound. Plasma pharmacokinetic parameters were calculated by non-compartmental methods.

Each structure is given as a SMILES string.

For the compound `F/C=C1/CN2CCC[C@@]2(COc2nc3c4c(nc(-c5c(C6CC6)c(Cl)cc6[nH]ncc56)c(F)c4n2)OC[C@@H]2COCCCN32)C1` [Ex-1, (8aS)-5-(6-chloro-5-cyclopropyl-1H-indazol-4-yl)-4-fluoro-2-(((S,Z)-2-(fluoromethylene)tetrahydro-1H-pyrrolizin-7a(5H)-yl)methoxy)-8a,9,12,13-tetrahydro-8H,11H-7,10-dioxa-1,3,6,13a-tetraazanaphtho[1,8-ab]heptalene], in data set [1], the F % was 11%, the CLp worked out at 24 mL/min/kg, the MRT is listed as 1.4 h and the Vd is 2.0 L/kg. In data set [2], the F % amounted to 17%, the CLp is recorded as 5.0 mL/min/kg, the MRT is reported as 2.2 h and the Vd stood at 0.65 L/kg.
In data set [1], `CCc1c(F)ccc2cc3[nH]ncc3c(-c3nc4c5c(nc(OC[C@@]67CCCN6C[C@H](F)C7)nc5c3F)N3CCCOC[C@H]3CO4)c12` [Ex-2, (8aS)-5-(5-ethyl-6-fluoro-1H-benzo[f]indazol-4-yl)-4-fluoro-2-(((2R,7aS)-2-fluorotetrahydro-1H-pyrrolizin-7a(5H)-yl)methoxy)-8a,9,12,13-tetrahydro-8H,11H-7,10-dioxa-1,3,6,13a-tetraazanaphtho[1,8-ab]heptalene] gave a F % of 10%, a CLp of 40 mL/min/kg, a mean residence time MRT of 2.5 h and a Vd of 6.1 L/kg. In data set [2], this compound had a F % of 29%, a CLp of 18 mL/min/kg, an MRT of 2.4 h and a Vd of 2.6 L/kg.
Consider `Fc1c(-c2c(C3CC3)c(Cl)cc3[nH]ncc23)nc2c3c(nc(OC[C@@]45CCCN4C[C@H](F)C5)nc13)N1CCCOC[C@H]1CO2` [Ex-3, (8aS)-5-(6-chloro-5-cyclopropyl-1H-indazol-4-yl)-4-fluoro-2-(((2R,7aS)-2-fluorotetrahydro-1H-pyrrolizin-7a(5H)-yl)methoxy)-8a,9,12,13-tetrahydro-8H,11H-7,10-dioxa-1,3,6,13a-tetraazanaphtho[1,8-ab]heptalene], for which the clearance amounted to 40 mL/min/kg in data set [1] (male) and 10 mL/min/kg in data set [2] (male). Also, the MRT in data set [1] (male, read-out: MRT) turned out to be 1.7 h; in data set [2] (male, read-out: MRT), 3.6 h. Also, the Vd in data set [1] (male, read-out: Vd) was 4 L/kg; in data set [2] (male, read-out: Vd), 2.2 L/kg. Also, the bioavailability in data set [1] (male) amounted to 7.5%; in data set [2] (male), 15%.
As for `CCc1c(F)ccc2cc3[nH]nc(C)c3c(-c3nc4c5c(nc(OC[C@@]67CCCN6C[C@H](F)C7)nc5c3F)N3CCCOC[C@H]3CO4)c12` [Ex-6, (8aS)-5-(5-ethyl-6-fluoro-3-methyl-1H-benzo[f]indazol-4-yl)-4-fluoro-2-(((2R,7aS)-2-fluorotetrahydro-1H-pyrrolizin-7a(5H)-yl)methoxy)-8a,9,12,13-tetrahydro-8H,11H-7,10-dioxa-1,3,6,13a-tetraazanaphtho[1,8-ab]heptalene], the clearance worked out at 36 mL/min/kg in data set [1] (male) and 8 mL/min/kg in data set [2] (male). In addition, the MRT in data set [1] (male, read-out: MRT) came to 2.4 h; in data set [2] (male, read-out: MRT) it was 7.8 h. The Vd in data set [1] (male, read-out: Vd) came to 5.1 L/kg; in data set [2] (male, read-out: Vd), 3.7 L/kg. Besides, the values for the bioavailability in data set [1] (male) and in data set [2] (male) were 18% and 59%, respectively.
Turning to `CCc1c(F)ccc2cc3[nH]nc(C)c3c(-c3nc4c5c(nc(OC[C@@]67CCCN6C/C(=C\F)C7)nc5c3F)N3CCCOC[C@H]3CO4)c12` [Ex-7, (8aS)-5-(5-ethyl-6-fluoro-3-methyl-1H-benzo[f]indazol-4-yl)-4-fluoro-2-(((S,Z)-2-(fluoromethylene)tetrahydro-1H-pyrrolizin-7a(5H)-yl)methoxy)-8a,9,12,13-tetrahydro-8H,11H-7,10-dioxa-1,3,6,13a-tetraazanaphtho[1,8-ab]heptalene], in data set [1], the F % stood at 15%, the CLp was determined as 35 mL/min/kg, the MRT was 1.9 h and the Vd stood at 4.0 L/kg. In data set [3], this compound yielded a CLp of 7.7 mL/min/kg, an MRT of 3.1 h and a Vd of 1.4 L/kg.
